Where two headings read alike, the source gives them in different places.
Legend:
[1] = system: tracheal smooth muscle from guinea pigs (contraction induced by 3 × 10^−6 mol/L of CCh); experiment: Antagonism in vitro of contraction of isolated tracheal smooth muscle from guinea pigs induced by carbachol (CCh); type: cell-based, guinea pig; conditions: cumulative dosing
Excerpt: Preparation of the Isolated Tracheal Smooth Muscle Specimen from a Guinea Pig:
After a guinea pig was narcotized with urethane, the trachea between the throat and carina of the guinea pig was taken out rapidly, and placed in the Krebs-Henseleit (K-H) solution (composition (g/L): NaCl 6.92, KCl 0.35, CaCl2 0.28, KH2PO4 0.16, MgSO4.7H2O 0.4568, NaHCO3 2.1, Glucose 2.0) with a mixture gas of 5% CO2 and 95% O2 purged. After loose connective tissues and fats around the trachea were separated, the trachea was cut into trachea pieces having a width of about 3 mm and a length of 20 mm by a surgical scissor, with both ends of the trachea piece ligated with 4˜0 silk suture, and then placed into a thermostatic bath containing 5 ml of K—H solution (pH 7.4) at 37° C., with the mixture gas of 5% CO2 and 95% O2 continuously purged. A muscle tension transducer was connected to the upper end so as to apply 1.0 g of resting tension to the specimen, the change of the tension was recorded, the culture solution was replaced every 20 min, and the test was started after being balanced for 60 min.
Administration method: After the trachea piece was stabilized, 3×10^−6 mol/L of CCh was added into a bath, and after the contractile tension of the trachea piece reached a peak level, the example compounds, ipratropium bromide and tiotropium bromide were added into a Magnus bath by a cumulative dosing regimen with a dosage of 10^−9˜10^−5 mol, respectively, and the diastolic condition of the trachea piece was observed: if no response occurred (below the threshold concentration), a next dosage was continued to be added in sequence; if response occurred, after it reached a diastolic plateau, a next dosage was further added. The above operation was repeated until the contractile curve reached the minimum value. Finally, 10^−6 mol/L of isoprenaline was added so that the maximum relaxation would be reached and the curve was recorded.
Statistical approach: The result was expressed as mean ±standard deviation, and counted by Sigma Stat statistical package. The data was analyzed by using variance analysis, the comparison among means of a plurality of specimen was performed by using Student-Newman-Keuls(SNK) test; statistical significant level α=0.05 (bilateral).
Compounds shown in Table 5 were further prepared according to the present invention, and their IC50 […] of resistance to the contraction of tracheal smooth muscle from guinea pigs induced by a concentration of 3×10^−6 mol/L of CCh was determined.

[2] = system: tracheal smooth muscle from guinea pigs (contraction induced by 3 × 10^−6 mol/L of CCh); experiment: as above; type: cell-based, guinea pig
[3] = 3 × 10^−6 mol/L of CCh, read-out: IC50 (μM), antagonism in vitro against the contraction of the tracheal smooth muscle induced by CCh
[4] = Cavia porcellus, read-out: IC50 (μM), antagonism in vitro against the contraction of the tracheal smooth muscle induced by CCh, 3 × 10^−6 mol/L of CCh
[5] = Cavia porcellus, 3 × 10^−6 mol/L of CCh, read-out: IC50 (μM), antagonism in vitro against the contraction of the tracheal smooth muscle induced by CCh

| Molecule | IC50 [1, 3] | Onset time [2] | Time for eliminating inhibition effect [2] | IC50 [1, 4] | Time for eliminating inhibition effect (min) [2] | IC50 [1, 5] | IC50 ([1]; read-out: IC50 (μM), antagonism in vitro against the contraction of the tracheal smooth muscle induced by CCh, 3 × 10^−6 mol/L of CCh) |
| --- | --- | --- | --- | --- | --- | --- | --- |
| CC(C)[N+]1(C)[C@@H]2CC[C@H]1CC(OC(=O)C(CO)c1ccccc1)C2.[Br-] (stereo partly drawn) [ipratropium bromide, reference compound] | 0.0361 µM | 6.82 min | 185 min | – | – | – | – |
| OC(COC1C[N+]2(CCCOc3ccccc3)CCC1CC2)(c1cccc2ccccc12)C1CCCC1.[Br-] [Example 29, (2R,3R)-3-[(2-cyclopentyl-2-hydroxyl-2-naphthyl)ethoxyl]-1-(3-phenoxypropyl)-1-azabicyclo[2,2,2]octane bromide] | – | 7.14 min | – | 0.723 µM | more than 300 min | – | – |
| (2R,3R),(2S,3S) Configuration of 3-[(2-cyclopentyl-2-hydroxyl-2-phenyl)ethoxyl]-1-(3-phenoxypropyl)-1-azabicyclo[2,2,2]octane bromide [Example 6] | 0.156 µM | 6.61 min | – | – | more than 300 min | – | – |
| OC(CO[C@H]1C[N+]2(CCCOc3ccccc3)CCC1CC2)(c1ccccc1)C1CCCCC1 (stereo partly drawn) [Example 11, (2R,3S),(2S,3R) Configuration of 3-[(2-cyclohexyl-2-hydroxyl-2-phenyl)ethoxyl]-1-(3-phenoxypropyl)-1-azabicyclo[2,2,2]octane bromide] | – | 6.77 min | – | – | more than 300 min | 1.36 µM | – |
| (2R,3S),(2S,3R)-3-[(2-cyclopropyl-2-hydroxyl-2-phenyl)ethoxyl]-1-(3-phenoxypropyl)-1-azabicyclo[2,2,2]octane bromide [Example 23] | 2.02 µM | 6.78 min | – | – | more than 300 min | – | – |
| OC(CO[C@H]1C[N+]2(CCCOc3ccccc3)CCC1CC2)(c1ccccc1)C1CC1 (stereo partly drawn) [Example 24, (2R,3R),(2S,3S) Configuration of 3-[(2-cyclopropyl-2-hydroxyl-2-phenyl)ethoxyl]-1-(3-phenoxypropyl)-1-azabicyclo[2,2,2]octane bromide] | – | 6.58 min | – | – | more than 300 min | 0.451 µM | – |
| OC(CO[C@H]1C[N+]2(CCCOc3ccccc3)CCC1CC2)(c1ccccc1)C1CCC1 (stereo partly drawn) [Example 17, (2R,3S),(2S,3R)-3-[(2-cyclobutyl-2-hydroxyl-2-phenyl)ethoxyl]-1-(3-phenoxypropyl)-1-azabicyclo[2,2,2]octane bromide] | 1.57 µM | 7.05 min | – | – | more than 300 min | – | – |
| OC(COC1C[N+]2(CCCOc3ccccc3)CCC1CC2)(c1ccccc1Cl)C1CCCC1.[Br-] [Example 30, (2R,3R)-3-[(2-cyclopentyl-2-hydroxyl-2-o-chlorophenyl)ethoxyl]-1-(3-phenoxypropyl)-1-azabicyclo[2,2,2]octane bromide] | – | 5.98 min | – | 0.0371 µM | more than 300 min | – | – |
| OC(COC1C[N+]2(CCCOc3ccccc3)CCC1CC2)(c1ccco1)C1CCCC1.[Br-] [Example 32, (2R,3R)-3-[(2-cyclopentyl-2-hydroxyl-2-(2-furyl))ethoxyl]-1-(3-phenoxypropyl)-1-azabicyclo[2,2,2]octane bromide] | – | 5.85 min | – | 0.0379 µM | more than 300 min | – | – |
| OC(CO[C@H]1C[N+]2(CCCOc3ccccc3)CCC1CC2)(c1ccccc1)C1CCCCC1.[Br-] (stereo partly drawn) [Example 7, (2R,3S)-3-[(2-cyclohexyl-2-hydroxyl-2-phenyl)ethoxyl]-1-(3-phenoxypropyl)-1-azabicyclo[2,2,2]octane bromide] | – | 6.56 min | – | 0.791 µM | more than 300 min | – | – |
| OC(CO[C@H]1C[N+]2(CCCOc3ccccc3)CCC1CC2)(c1ccccc1)C1CCC1 (stereo partly drawn) [Example 13, (2R,3S)-3-[(2-cyclobutyl-2-hydroxyl-2-phenyl)ethoxyl]-1-(3-phenoxypropyl)-1-azabicyclo[2,2,2]octane bromide] | – | 7.25 min | – | – | more than 300 min | 0.917 µM | – |
| OC(CO[C@@H]1C[N+]2(COCOc3ccccc3)CCC1CC2)(c1ccccc1)C1CCCC1.[Cl-] (stereo partly drawn) [Example 28, (2R,3R)-3-[(2-cyclopentyl-2-hydroxyl-2-phenyl)ethoxyl]-1-phenoxymethoxymethyl-1-azabicyclo[2,2,2]octane chloride] | – | 6.06 min | – | – | more than 300 min | 0.0264 µM | – |
| OC(CO[C@@H]1C[N+]2(CCOc3ccccc3)CCC1CC2)(c1ccccc1)C1CCCC1.[Br-] (stereo partly drawn) [Example 25, (2S,3R)-3-[(2-cyclopentyl-2-hydroxyl-2-phenyl)ethoxyl]-1-(2-phenoxyethyl)-1-azabicyclo[2,2,2]octane bromide] | – | 6.36 min | – | 0.867 µM | more than 300 min | – | – |
| OC(CO[C@@H]1C[N+]2(CCCOc3ccccc3)CCC1CC2)(c1ccccc1)C1CCC1.[Br-] (stereo partly drawn) [Example 15, (2S,3R)-3-[(2-cyclobutyl-2-hydroxyl-2-phenyl)ethoxyl]-1-(3-phenoxypropyl)-1-azabicyclo[2,2,2]octane bromide] | – | 6.29 min | – | – | more than 300 min | – | 1.52 µM |
| OC(COC1C[N+]2(CCCOc3ccccc3)CCC1CC2)(c1cccnc1)C1CCCC1.[Br-] [Example 31, (2R,3R)-3-[(2-cyclopentyl-2-hydroxyl-2-(3-pyridyl))ethoxyl]-1-(3-phenoxypropyl)-1-azabicyclo[2,2,2]octane bromide] | – | 6.37 min | – | 0.0206 µM | more than 300 min | – | – |

— patent publication US9751875B2, “Quinine compounds, and optical isomers, preparation method and medical use thereof” (BEIJING FSWELCOME TECHNOLOGY DEVELOPMENT CO., LTD., priority 2013, dated 2017)
